Experimental data: paper PMC10363607, “Identification of novel and potent dual-targeting HDAC1/SPOP inhibitors using structure-based virtual screening, molecular dynamics simulation and evaluation of in vitro and in vivo antitumor activity” (Frontiers in Pharmacology, 2023)
“Also recorded” adds a separate entry of the source. Like-named read-outs stand apart in the source and are kept apart here. Blank lines part the entries; values can stand above or below the compound they belong to.

Tests used:
HDAC1 = molecular target: T1, HDAC1 (Homo sapiens, UniProt Q13547); assay: In vitro HDAC1 inhibition, fluorescent substrate Boc-Lys(acetyl)-AMC; type: biochemical
T1 construct: purchased Abcam
Experimental: In the 96-well plates, different concentrations of the tested compound (50 μL) were added to 10 μl of HDAC1 enzyme solution. After incubation at 37°C for 5 min, 40 μl of the fluorescent substrate Boc-Lys (acetyl)-AMC was then added to the mixture. The plates were incubated at 37°C for 0.5 h, and the developer (100 μl) containing trypsin and TSA was added to the mixture. Finally, the fluorescence intensity at wavelengths of 390 nm and 460 nm was measured 20 min later by a microplate reader (Perkin Elemer).
(§1) All experiments were performed in triplicate. Competition binding data were analyzed using GraphPad Prism 6.0 software (GraphPad Software Inc, San Diego, CA) and the inhibition constants (IC50) were calculated by nonlinear curve fitting.

SPOP = molecular target: T2, SPOP (Homo sapiens, UniProt O43791); assay: SPOP fluorescence polarization (FP) competition assay with FITC-puc_SBC1; type: binding
T2 construct: purchased Abcam
Experimental: The enzymatic activity of SPOP was determined by a previously described fluorescence polarization (FP) assay ([Guo et al., 2016]). FITC-labeled peptide substrate puc_SBC1 (FITC-puc_SBC1, FITC-[…]) was purchased (GL Biochem Ltd, Shanghai). Serial dilutions of competitors for SPOP23-337 were prepared from the 20 mM DMSO stocks. The diluted compound was added to the reaction mixture in 100 μl of HEPES (25 mM, pH 7.5) containing 10 μM SPOP and 50 nM FITC-puc_SBC1. After incubation for 1 h at 4°C, FP was measured on a microplate reader (Perkin Elemer) using the wavelengths of 480 nm for excitation and 535 nm for emission, respectively.
as §1

769-P cell = assay: MTT cell growth inhibition, 769-P; type: cell-based; details: 72 h, read-out: 769-P cell proliferation IC50
Experimental: (§2) According to the previously reported method ([Namwan et al., 2022]; [Zhao et al., 2023]), at a concentration of 5 × 10^4/ml, cell lines were planted in 96-well plates and cultivated for an entire night. The cells were incubated at 37 °C for 72 h while being exposed to various inhibitor concentrations. And then, MTT stock solution (5 mg/ml) was added to each well and incubated for an additional 4 h. Dimethyl sulfoxide (DMSO) was used to dissolve the insoluble crystals, and a microplate reader was used to detect absorbance at 570 nm. Survival ratio (%) was calculated using the following equation: survival ratio (%) = (A treatment /A control ) × 100%. Data were analyzed using the analysis software GraphPad Prism 6.0 software (GraphPad Software Inc., San Diego, CA), and the half-maximal inhibitory concentration (IC50) values were calculated by the dose-response curve visualized using nonlinear regression (curve fit).

OS-RC-2 cell = assay: MTT cell growth inhibition, OS-RC-2; type: cell-based; details: read-out: OS-RC-2 cell proliferation IC50
Experimental: as §2

[1] = tested on: SPOP and HDAC levels in HCT-116 cells; assay: Western blot of SPOP and HDAC levels in HCT-116 cells; type: cell-based; details: HCT-116 cells, 0, 0.5 and 2 μM, 72 h
Experimental: (§3) The tumor cells (10^6 cells/well) were seeded onto 6-well plates and allowed to culture for 24 h. The cells were incubated with various concentrations (0, 0.5 and 2 μM) of HS-2 at 37°C for 72 h. Tumor cells were washed and lysed with RIPA. Protein samples were detected by western blot as described previously ([Zheng et al., 2021]).

[2] = tested on: SPOP and HDAC levels in A498 cells; assay: Western blot of SPOP and HDAC levels in A498 cells; type: cell-based; details: A498 cells, 0, 0.5 and 2 μM, 72 h
Experimental: as §3

HCT-116 tumor cells = assay: In vivo anticancer activity, HCT-116 xenograft; details: six times; for tumor volume versus control group: HCT-116 xenograft, nude mice
Experimental: According to the previously reported in vivo inhibition method, we injected HCT-116 tumor cells (200 μl, 1 × 10^7 cells) into the right subcutaneous space of 6-week-old BALB/c nude mice (Experimental Animal Center of Yangzhou University (Yangzhou, China) ([Zheng et al., 2021]). All experimental protocols were approved by the Animal Ethics Committee of China Pharmaceutical University. When the tumors grew to 90–120 mm^3, the mice were randomly divided into three groups (five mice per group) and intraperitoneally administered with vehicle (PBS buffer pH 7.4, volume capacity: 0.2 ml), compound HS-2 (volume capacity: 0.2 ml in PBS vehicle, 5 mg/kg), and compound HS-2 (volume capacity: 0.2 ml in PBS vehicle, 10 mg/kg) every 3 days for a total of six times. Tumor volume and weight were measured every 3 days. Tumor volume was calculated using the formula (c × c × d)/2 (c, the smallest diameter; d, the largest diameter).

[3] = FP, 10 μM SPOP, 50 nM FITC-puc_SBC1, triplicate
[4] = 5 and 10 mg/kg intraperitoneally every 3 days

T1 sequence (Q13547 whole entry): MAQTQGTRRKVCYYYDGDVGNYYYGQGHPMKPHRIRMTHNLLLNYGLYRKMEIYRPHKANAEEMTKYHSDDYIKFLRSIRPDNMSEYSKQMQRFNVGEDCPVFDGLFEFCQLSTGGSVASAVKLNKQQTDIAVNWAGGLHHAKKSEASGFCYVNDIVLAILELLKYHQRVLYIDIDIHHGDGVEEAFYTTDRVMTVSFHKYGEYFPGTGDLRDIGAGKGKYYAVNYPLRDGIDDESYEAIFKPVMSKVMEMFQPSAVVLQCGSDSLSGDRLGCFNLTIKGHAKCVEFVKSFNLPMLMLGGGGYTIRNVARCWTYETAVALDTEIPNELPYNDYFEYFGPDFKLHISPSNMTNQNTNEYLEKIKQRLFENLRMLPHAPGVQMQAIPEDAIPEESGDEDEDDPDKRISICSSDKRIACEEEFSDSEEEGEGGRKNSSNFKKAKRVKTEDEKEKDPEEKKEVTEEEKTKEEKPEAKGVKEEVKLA
T2 sequence (O43791 23-337): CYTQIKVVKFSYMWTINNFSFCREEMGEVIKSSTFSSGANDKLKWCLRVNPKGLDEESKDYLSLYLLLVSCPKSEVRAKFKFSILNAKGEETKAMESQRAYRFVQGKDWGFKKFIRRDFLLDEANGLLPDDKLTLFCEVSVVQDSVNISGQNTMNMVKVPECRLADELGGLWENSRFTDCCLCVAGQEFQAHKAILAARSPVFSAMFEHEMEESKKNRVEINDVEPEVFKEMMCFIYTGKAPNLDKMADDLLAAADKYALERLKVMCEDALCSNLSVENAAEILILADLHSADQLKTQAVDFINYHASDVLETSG

SMILES: Cc1cccn2c(=O)c3cc(ONCCCCCC(=O)NO)c(=N)n(CCc4ccc(C(F)(F)F)cc4)c3nc12 [HS-2]
IC50 (HDAC1; triplicate): 0.0076 ± 0.0004 µM
HDAC1 inhibitory effect relative to Vorinostat (IC50 ratio) (HDAC1; versus positive control Vorinostat): about 1.1 times
IC50 (SPOP; [3]): 9.1 ± 0.7 µM
SPOP inhibitory effect relative to SPOP-IN-6b (IC50 ratio) (SPOP; versus positive control SPOP-IN-6b): ~3.8 times
IC50 (769-P cell): 5.2 ± 1.1 µM
IC50 (769-P cell; Homo sapiens, 769-P): < 10 µM
IC50 (OS-RC-2 cell; 72 h): 9.3 ± 1.7 µM
IC50 (OS-RC-2 cell; Homo sapiens, OS-RC-2, 72 h): < 10 µM
HDAC level (western blot) [1]: reduced
SPOP level (western blot) [1]: reduced
HDAC level (western blot) [2]: reduced
SPOP level (western blot) [2]: reduced
tumor volume versus control group (HCT-116 tumor cells; 5 mg/kg intraperitoneally every 3 days): significantly less tumor volume than the control group
tumor volume versus control group (HCT-116 tumor cells; 10 mg/kg intraperitoneally every 3 days): significantly less tumor volume than the control group
body weight of mice (HCT-116 tumor cells; [4]): no significant differences
toxicity in vivo (HCT-116 tumor cells; [4]): no significant toxicity

SMILES: Cc1cccn2c(=O)c3cc(C(=O)NCCCN4CCOCC4)c(=N)n(CCc4ccccc4)c3nc12 [SPOP-IN-6b, reference compound]
HDAC1 (IC50, nM) (HDAC1; triplicate): without an inhibitory effect on HDAC1; also recorded: no binding
IC50 (SPOP; [3]): 34.6 ± 3.1 µM

SMILES: O=C(CCCCCCC(=O)Nc1ccccc1)NO [Vorinostat, reference compound]
SPOP (IC50, μM) (SPOP; [3]): without affecting SPOP activity; also recorded: no binding

Further lines, results first:

IC50 (HDAC1; triplicate): 0.0137 ± 0.0011 µM
IC50 (SPOP; [3]): 18.3 ± 2.5 µM
SMILES: Cc1cccn2c(=O)c3cc(ONCCCCCC(=O)NO)c(=N)n(CCc4cccs4)c3nc12 [HS-1]

IC50 (HDAC1; triplicate): 0.0115 ± 0.0013 µM
IC50 (SPOP; [3]): 14.9 ± 1.2 µM
SMILES: Cc1cccn2c(=O)c3cc(ONCCCCCC(=O)NO)c(=N)n(CCc4ccc(Cl)c(F)c4)c3nc12 [HS-3]

IC50 (HDAC1; triplicate): 0.0184 ± 0.0019 µM
IC50 (SPOP; [3]): 23.2 ± 2.7 µM
SMILES: CCN(CC)CCn1c(=N)c(ONCCCCCC(=O)NO)cc2c(=O)n3cccc(C)c3nc21 [HS-4]
